Experimental data reported in PubChem BioAssay AID2060485 (Molecular Pharmacology Branch, DTP, NCI, 2025).

Tested on: A375 multi-cell spheroids with HUVEC/MSC, viability
Experiment: Anticancer human tumor A375 cell line growth inhibition [GQUAD];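 further: spheroids exposed to compounds for seven days before readout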
Conditions: for IC50: curve of first compound; for viability, T/C: stronger effect = lower value; active means viability on the fitted dose curve at most 10% of control; inactive means the rest
Method in brief: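 Tumor cells were grown as complex spheroids with HUVEC endothelial cells and mesenchymal stem cells as stroma. G-quadruplex stabilizers were combined with targeted agents over half-log dilutions from near the clinical Cmax, or from 10 microM.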

[1] = second compound 0.0316 µM, first compound 0.0316 µM
[2] = second compound 0.0316 µM, first compound 0.1 µM
[3] = second compound 0.0316 µM, first compound 0.316 µM
[4] = second compound 0.0316 µM, first compound 1 µM
[5] = second compound 0.0316 µM, first compound 3.16 µM
[6] = second compound 0.0316 µM, first compound 10 µM
[7] = second compound 0.1 µM, first compound 0.0316 µM
[8] = second compound 0.1 µM, first compound 0.1 µM
[9] = second compound 0.1 µM, first compound 0.316 µM
[10] = second compound 0.1 µM, first compound 1 µM
[11] = second compound 0.1 µM, first compound 3.16 µM
[12] = second compound 0.1 µM, first compound 10 µM
[13] = second compound 0.316 µM, first compound 0.0316 µM
[14] = second compound 0.316 µM, first compound 0.1 µM
[15] = second compound 0.316 µM, first compound 0.316 µM
[16] = second compound 0.316 µM, first compound 1 µM
[17] = second compound 0.316 µM, first compound 3.16 µM
[18] = second compound 0.316 µM, first compound 10 µM
[19] = second compound 1 µM, first compound 0.0316 µM
[20] = second compound 1 µM, first compound 0.1 µM
[21] = second compound 1 µM, first compound 0.316 µM
[22] = second compound 1 µM, first compound 1 µM
[23] = second compound 1 µM, first compound 3.16 µM
[24] = second compound 1 µM, first compound 10 µM
[25] = second compound 3.16 µM, first compound 0.0316 µM
[26] = second compound 3.16 µM, first compound 0.1 µM
[27] = second compound 3.16 µM, first compound 0.316 µM
[28] = second compound 3.16 µM, first compound 1 µM
[29] = second compound 3.16 µM, first compound 3.16 µM
[30] = second compound 3.16 µM, first compound 10 µM
[31] = second compound 10 µM, first compound 0.0316 µM
[32] = second compound 10 µM, first compound 0.1 µM
[33] = second compound 10 µM, first compound 0.316 µM
[34] = second compound 10 µM, first compound 1 µM
[35] = second compound 10 µM, first compound 3.16 µM
[36] = second compound 10 µM, first compound 10 µM

CC(=O)O[C@H]1C(=O)[C@@]2(C)[C@H]([C@H](OC(=O)c3ccccc3)[C@]3(O)C[C@H](OC(=O)[C@H](O)[C@@H](NC(=O)c4ccccc4)c4ccccc4)C(C)=C1C3(C)C)[C@]1(OC(C)=O)CO[C@@H]1C[C@@H]2O + CN(C)c1ccc(Nc2c3ccc(NC(=O)CCN4CCCC4)cc3nc3cc(NC(=O)CCN4CCCC4)ccc23)cc1
61.2 nM: IC50 (second compound 0.0316 µM)
61.3 nM: IC50 (second compound 0.1 µM)
55.5 nM: IC50 (second compound 10 µM)
inactive: viability, T/C [1] 86.3% | viability, T/C [2] 23.1% | viability, T/C [3] 12.3% | viability, T/C [4] 11% | viability, T/C [5] 11.4% | viability, T/C [6] 10.6% | viability, T/C [7] 86.5% | viability, T/C [8] 23% | viability, T/C [9] 12.1% | viability, T/C [10] 13.2% | viability, T/C [11] 11.7% | viability, T/C [12] 12.9% | viability, T/C [13] 88.1% | viability, T/C [14] 21.3% | viability, T/C [15] 12.2% | viability, T/C [16] 10.6% | viability, T/C [17] 12.8% | viability, T/C [18] 15% | viability, T/C [19] 87.5% | viability, T/C [20] 23% | viability, T/C [21] 10.2% | viability, T/C [22] 12.8% | viability, T/C [23] 10.4% | viability, T/C [24] 12.9% | viability, T/C [25] 95.4% | viability, T/C [26] 23.2% | viability, T/C [27] 11.7% | viability, T/C [28] 10.7% | viability, T/C [29] 11.6% | viability, T/C [30] 11.9% | viability, T/C [31] 76.8% | viability, T/C [32] 22% | viability, T/C [33] 13.3% | viability, T/C [34] 11.7% | viability, T/C [35] 10.9% | viability, T/C [36] 12.4%
61.7 nM: IC50 (second compound 1 µM)
65.2 nM: IC50 (second compound 3.16 µM)
61 nM: IC50 (second compound 0.316 µM)

Nc1ccn(C2OC(CO)C(O)C2(F)F)c(=O)n1 (stereo unspecified) + CN(C)c1ccc(Nc2c3ccc(NC(=O)CCN4CCCC4)cc3nc3cc(NC(=O)CCN4CCCC4)ccc23)cc1
inactive: viability, T/C [1] 13.1% | viability, T/C [7] 12.4% | viability, T/C [13] 13.4% | viability, T/C [19] 11% | viability, T/C [25] 13.2% | viability, T/C [31] 11.4%
< 31.6 nM: IC50 (second compound 0.0316 µM) | IC50 (second compound 0.1 µM) | IC50 (second compound 0.316 µM) | IC50 (second compound 1 µM) | IC50 (second compound 3.16 µM) | IC50 (second compound 10 µM)
active: viability, T/C [2] 5.96% | viability, T/C [3] 5.05% | viability, T/C [4] 6.71% | viability, T/C [5] 7.93% | viability, T/C [6] 7.84% | viability, T/C [8] 6.04% | viability, T/C [9] 6.62% | viability, T/C [10] 6.98% | viability, T/C [11] 7.52% | viability, T/C [12] 8.82% | viability, T/C [14] 5.96% | viability, T/C [15] 6.92% | viability, T/C [16] 7.41% | viability, T/C [17] 8.24% | viability, T/C [18] 9.65% | viability, T/C [20] 6.99% | viability, T/C [21] 6.31% | viability, T/C [22] 6.93% | viability, T/C [23] 7.59% | viability, T/C [24] 10.1% | viability, T/C [26] 6.34% | viability, T/C [27] 6.54% | viability, T/C [28] 7.74% | viability, T/C [29] 8.41% | viability, T/C [30] 9.18% | viability, T/C [32] 5.96% | viability, T/C [33] 6.62% | viability, T/C [34] 6.28% | viability, T/C [35] 9.34% | viability, T/C [36] 7.97%

O=c1[nH]cc(F)c(=O)[nH]1 + CN(C)c1ccc(Nc2c3ccc(NC(=O)CCN4CCCC4)cc3nc3cc(NC(=O)CCN4CCCC4)ccc23)cc1
inactive: viability, T/C [1] 98.7% | viability, T/C [2] 107% | viability, T/C [3] 97.2% | viability, T/C [4] 106% | viability, T/C [5] 109% | viability, T/C [6] 99.3% | viability, T/C [7] 99.8% | viability, T/C [8] 104% | viability, T/C [9] 99.3% | viability, T/C [10] 103% | viability, T/C [11] 106% | viability, T/C [12] 96.8% | viability, T/C [13] 112% | viability, T/C [14] 102% | viability, T/C [15] 97.8% | viability, T/C [16] 103% | viability, T/C [17] 107% | viability, T/C [18] 92.9% | viability, T/C [19] 108% | viability, T/C [20] 100% | viability, T/C [21] 94.2% | viability, T/C [22] 104% | viability, T/C [23] 105% | viability, T/C [24] 96% | viability, T/C [25] 108% | viability, T/C [26] 98.1% | viability, T/C [27] 101% | viability, T/C [28] 99.1% | viability, T/C [29] 100% | viability, T/C [30] 95.4% | viability, T/C [31] 106% | viability, T/C [32] 94.4% | viability, T/C [33] 101% | viability, T/C [34] 102% | viability, T/C [35] 105% | viability, T/C [36] 98.4%
> 10000 nM: IC50 (second compound 0.0316 µM) | IC50 (second compound 0.1 µM) | IC50 (second compound 0.316 µM) | IC50 (second compound 1 µM) | IC50 (second compound 3.16 µM) | IC50 (second compound 10 µM)
